Source: patent publication US9067894B1, “Compound, composition, and method of activating GIRK potassium channel and use of same for treating conditions of interest” (Vanderbilt University, priority 2013, dated 2015)

Experiments:
Bradykinin B1 = biological target: T1, Bradykinin B1 (Homo sapiens, UniProt P46663); experiment: Radioligand displacement (Ricerca); format: binding
T1 construct: Ricerca

GABAA (flunitrazepam) = experiment: Radioligand displacement (Ricerca); format: binding, rat; conditions: 10 μM
PAF = biological target: T2, PAF (Homo sapiens, UniProt P25105); experiment: Radioligand displacement (Ricerca); format: binding
T2 construct: Ricerca (contract laboratory that ran the panel)

Bradykinin B2 = biological target: T3, Bradykinin B2 (Homo sapiens, UniProt P30411); experiment: Radioligand displacement (Ricerca); format: binding
T3 construct: Ricerca

Neuropeptide Y (Y1 ) = biological target: T4, Neuropeptide Y (Y1 ) (Homo sapiens, UniProt P25929); experiment: Radioligand displacement (Ricerca); format: binding
T4 construct: Ricerca (contract laboratory that ran the panel)

Transporter, GABA = biological target: T5, Transporter, GABA (Rattus norvegicus, UniProt P23978); experiment: Radioligand displacement (Ricerca); format: binding
T5 construct: Ricerca (contract panel)

GIRK1/2 = biological target: T6, GIRK1/2 (Homo sapiens, UniProt P48051+P48549); experiment: Thallium flux assay, HEK-293 cells expressing GIRK1/2; format: cell-based; parameters: host or cells: HEK-293; conditions: cell line GIRK1-2; average ± SEM; read-out: EC50 Thallium Flux
T6 sequence (P48549 1-501): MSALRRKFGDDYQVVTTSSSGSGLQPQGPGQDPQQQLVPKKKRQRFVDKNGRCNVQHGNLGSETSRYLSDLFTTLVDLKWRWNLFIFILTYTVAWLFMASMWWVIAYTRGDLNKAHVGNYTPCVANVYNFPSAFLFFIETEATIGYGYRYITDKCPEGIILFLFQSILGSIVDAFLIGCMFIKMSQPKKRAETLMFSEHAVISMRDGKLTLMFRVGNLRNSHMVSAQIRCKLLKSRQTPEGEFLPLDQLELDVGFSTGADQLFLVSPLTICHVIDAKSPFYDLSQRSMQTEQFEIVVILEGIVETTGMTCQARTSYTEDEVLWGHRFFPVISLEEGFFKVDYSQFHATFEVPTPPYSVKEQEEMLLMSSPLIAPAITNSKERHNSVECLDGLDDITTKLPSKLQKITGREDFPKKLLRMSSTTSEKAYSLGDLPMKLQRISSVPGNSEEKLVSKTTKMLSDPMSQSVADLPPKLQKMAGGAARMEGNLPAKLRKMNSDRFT
T6 sequence (P48051 1-423): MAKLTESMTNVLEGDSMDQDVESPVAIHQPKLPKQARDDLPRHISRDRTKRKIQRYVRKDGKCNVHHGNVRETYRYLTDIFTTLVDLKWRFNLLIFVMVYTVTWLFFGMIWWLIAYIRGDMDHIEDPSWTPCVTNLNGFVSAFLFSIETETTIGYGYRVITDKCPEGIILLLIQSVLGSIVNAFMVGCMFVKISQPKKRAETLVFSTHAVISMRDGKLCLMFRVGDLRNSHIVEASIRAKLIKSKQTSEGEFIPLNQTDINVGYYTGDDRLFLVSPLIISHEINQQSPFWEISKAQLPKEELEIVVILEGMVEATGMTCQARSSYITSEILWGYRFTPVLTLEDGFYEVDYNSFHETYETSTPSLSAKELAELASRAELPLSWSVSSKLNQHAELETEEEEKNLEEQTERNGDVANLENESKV
From the text: Cell Line Construction and Cell Culture. HEK-293 cells co-expressing human GIRK1/2 and rat mGlu8 were generated as previously described (Niswender et al., 2008). A HEK-293 cell line (ATCC, Manassas, Va.) expressing human GIRK1 and human GIRK2 was constructed by transfecting HEK-293 cells with GIRK1 and GIRK2 (Origene, Rockville, Md.) cloned into the pBudCE4.1 vector (Life Technologies, Carlsbad, Calif.) using FuGene 6 (Promega, Madison, Wis.) transfection reagent. Unless otherwise noted, other ion channel-expressing cells were prepared by transfecting HEK-293 cells with individual or combinations of subunits: GIRK1, pCMV6-A-BSD; GIRK2, pCMV6-A-puro; GIRK3, pCMV6-A-hygro; GIRK4, pCMV6-A-AC; Kv7.4, pIRESneo3. The Kir2.1 and hERG-expressing cell lines were made by transfecting T-REx-293 cells (Life Technologies, Carlsbad, Calif.) with Kir2.1 and Kv11.1, respectively, cloned into pcDNA5TO. Monoclonal cell lines were produced by limiting-dilution cloning of antibiotic-resistant cells and functional selection using the thallium flux assay described below. Unless otherwise noted, cells were maintained in Minimal Essential Medium, Alpha Medium (Mediatech, Manassas, Va.) supplemented with 10% fetal bovine serum (Sigma-Aldrich, Saint Louis, Mo.) and GlutaGro (Mediatech, Manassas, Va.), referred to henceforth as cell culture medium. […]

Dopamine D2s = biological target: T7, Dopamine D2s (Homo sapiens, UniProt P14416); experiment: Radioligand displacement (Ricerca); format: binding
T7 construct: Ricerca
T7 sequence (P14416 1-414 isoform P14416-2): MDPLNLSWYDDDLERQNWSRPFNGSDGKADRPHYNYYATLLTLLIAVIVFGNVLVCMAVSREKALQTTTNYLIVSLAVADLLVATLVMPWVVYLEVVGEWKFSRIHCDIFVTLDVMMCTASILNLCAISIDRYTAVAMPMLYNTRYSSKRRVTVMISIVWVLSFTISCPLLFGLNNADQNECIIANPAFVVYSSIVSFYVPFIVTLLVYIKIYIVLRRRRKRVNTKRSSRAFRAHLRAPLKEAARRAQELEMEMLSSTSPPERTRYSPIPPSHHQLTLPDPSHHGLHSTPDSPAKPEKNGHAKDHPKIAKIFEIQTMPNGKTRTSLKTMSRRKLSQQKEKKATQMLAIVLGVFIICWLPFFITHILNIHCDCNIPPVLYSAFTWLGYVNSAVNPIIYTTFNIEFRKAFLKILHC

T4 sequence (P25929 whole entry): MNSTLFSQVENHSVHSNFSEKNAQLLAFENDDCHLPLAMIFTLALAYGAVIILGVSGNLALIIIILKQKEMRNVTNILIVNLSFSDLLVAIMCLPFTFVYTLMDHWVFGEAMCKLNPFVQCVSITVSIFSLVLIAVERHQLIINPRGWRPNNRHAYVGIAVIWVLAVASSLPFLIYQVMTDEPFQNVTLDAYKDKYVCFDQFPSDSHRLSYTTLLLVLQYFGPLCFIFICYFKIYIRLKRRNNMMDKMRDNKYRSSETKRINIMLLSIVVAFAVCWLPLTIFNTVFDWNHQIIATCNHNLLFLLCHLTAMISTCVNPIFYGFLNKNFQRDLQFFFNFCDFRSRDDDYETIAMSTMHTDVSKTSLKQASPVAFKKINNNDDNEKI
T1 sequence (P46663 whole entry): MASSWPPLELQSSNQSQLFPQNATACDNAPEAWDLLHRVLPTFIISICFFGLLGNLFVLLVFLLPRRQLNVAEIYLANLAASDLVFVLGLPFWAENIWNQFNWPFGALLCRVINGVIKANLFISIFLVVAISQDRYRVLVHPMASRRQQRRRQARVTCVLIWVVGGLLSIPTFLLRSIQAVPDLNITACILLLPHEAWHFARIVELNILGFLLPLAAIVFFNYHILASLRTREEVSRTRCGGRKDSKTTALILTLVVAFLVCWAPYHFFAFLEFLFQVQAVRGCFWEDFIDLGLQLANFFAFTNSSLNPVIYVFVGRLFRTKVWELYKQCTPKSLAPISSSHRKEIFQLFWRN
T2 sequence (P25105 whole entry): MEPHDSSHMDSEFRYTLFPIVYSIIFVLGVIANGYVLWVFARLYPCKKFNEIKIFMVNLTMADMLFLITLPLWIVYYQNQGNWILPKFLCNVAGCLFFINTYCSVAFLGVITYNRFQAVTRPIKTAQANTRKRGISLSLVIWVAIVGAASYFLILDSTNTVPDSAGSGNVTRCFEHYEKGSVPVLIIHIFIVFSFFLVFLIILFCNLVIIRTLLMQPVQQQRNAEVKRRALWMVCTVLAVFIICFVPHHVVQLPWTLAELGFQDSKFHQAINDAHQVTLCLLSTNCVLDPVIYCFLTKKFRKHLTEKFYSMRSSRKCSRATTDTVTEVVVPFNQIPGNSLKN
T3 sequence (P30411 whole entry): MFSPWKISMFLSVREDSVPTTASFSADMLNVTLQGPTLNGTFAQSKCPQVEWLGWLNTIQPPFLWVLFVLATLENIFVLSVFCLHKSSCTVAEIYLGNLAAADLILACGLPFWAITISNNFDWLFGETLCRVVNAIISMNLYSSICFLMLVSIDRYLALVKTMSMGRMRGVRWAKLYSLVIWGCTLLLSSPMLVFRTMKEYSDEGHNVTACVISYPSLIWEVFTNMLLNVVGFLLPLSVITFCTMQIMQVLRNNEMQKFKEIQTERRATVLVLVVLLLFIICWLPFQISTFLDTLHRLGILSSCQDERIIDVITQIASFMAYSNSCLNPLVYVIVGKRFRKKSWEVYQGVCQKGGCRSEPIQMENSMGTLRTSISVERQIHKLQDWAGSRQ

In the case of `Cc1cc(NC(=O)Nc2ccc(F)c(F)c2)n(-c2ccccc2)n1` [VU0456810, 1-(3,4-difluorophenyl)-3-(3-methyl-1-phenyl-1H-pyrazol-5-yl)urea], the inhibition at 10 µM (Bradykinin B1) is reported as -2%, the “% Inhibition” value (GABAA (flunitrazepam)) is reported as 24% and the inhibition at 10 µM (PAF) is reported as 2%. The inhibition at 10 µM (Bradykinin B2) was -1%, the inhibition at 10 µM (Neuropeptide Y (Y1 )) was 24% and the inhibition at 10 µM (Transporter, GABA) was 5%. It also gave an EC50 (GIRK1/2) of 162 ± 89 nM and an inhibition at 10 µM (Dopamine D2s) of 16%.
